Test [1] deals with WI38 normal cells. Put plainly: apoptosis assay, sub-G1 analysis (propidium iodide, flow cytometry). It counts as cell-based, human. Here is the method: Apoptotic cells were quantified by sub-G1 analysis. Cells were seeded at a density of 2.5×10^5 to 5×10^5 in a 6-well plate and treated for 48-72 hours. After treatment, adherent cells were trypsinized and collected along with floating cells, washed with PBS and fixed in 70% ethanol. Cells were then incubated in a Phosphate-citric acid buffer (0.2 M Na2HPO4+0.1 M Citric Acid, pH 7.8) at room temperature for 5 minutes, spun down and resuspended for staining with 50 μg/mL propidium iodide (PI) in the presence of 250 μg/mL pancreatic ribonuclease (RNase A). Sub-G1 analyses were performed using an Epics Elite Epics flow cytometer (Coulter-Beckman).
Cells were seeded out at 1×10^6 cells/well on six well plates and treated with CB002 and Analog 11 at ranging doses with DMSO controls. Cells were harvested after 72 hours of treatment, all cells including floating cells were fixed with ethanol and stained with Propidium Iodide and then analyzed using Epics Elite flow cytometer to measure the DNA content of the stained cells.

The subject of test [2] is DLD-1 cells. As to the kind of experiment: colony formation assay. Type of test: cell-based, human. The note with it: 50 μM for 24 hours, then 15 days drug-free. On the procedure:
(§1) Cells were seeded in 6-well plates at a density of 500 cells per well. Cells were treated with CB002 small molecule for 24 hours. Then, cells were cultured in drug-free complete media for 15 days. During the course of 15 days, the media was changed every 2-3 days. At the end of the two weeks, media was removed, wells were washed twice with Dulbecco's phosphate buffered saline (PBS) and the colonies were fixed and stained with 10% methanol and 0.25% crystal violet (Sigma-Aldrich) for 30 minutes. Wells were then carefully washed with distilled and deionized water and allowed to dry.
(§2) To further validate CB002 as a candidate therapeutic, its capability to affect cell growth was determined by analyzing cancer cell colony formation. Colony formation assays are widely used to determine the ability of a single cell to proliferate and form a colony in culture. This method offers the advantage of elucidating the sensitivity of cells towards cytotoxic agents in a long-term assay that may mimic the response seen in mouse models. […] Referring to FIG. 3, cells were treated with 50 μM of CB002 for a period of 24 hours, at which point media was replaced with complete media for a period of 15 days. Images are from one of three replicates.

Test [3] concerns SW480 cells. Put plainly: colony formation assay. Type of test: cell-based, human. The note with it: 50 μM for 24 hours, then 15 days drug-free. On the procedure:
as §1, §2

Test [4] has as its system p73 DLD-1 stable knockdown cells. Put plainly: colony formation assay. Type of test: cell-based, human. To be noted: 50 μM for 24 hours, then 15 days drug-free. On the procedure: as §1, §2
In test [5] the test system is SW480 NOXA stable knockdown cells. Put plainly: apoptosis assay, sub-G1 analysis. To be noted: 96 μM, 48 hours, NOXA stably knocked down; DMSO 3.93%. Type of test: cell-based, human. On the procedure: A NOXA shRNA plasmid construct was amplified according to the manufacturer's recommendation (TRC Lentiviral Human PMAIP1 shRNA, Dharmacon). Plasmid DNA was isolated using the PureLink® HiPure Plasmid Filter Maxiprep Kit (Invitrogen) according to the manufacturer's instructions. Lentivirus production was performed by transfecting HEK293T cells at a density of 8×10^6 cells per 10 cm dish with 1.6 μg pMD2.G envelope plasmid, 3.2 μg psPAX2 packaging vector, 3.2 μg plasmid DNA, and 24 μL of Lipofectamine® Transfection reagent 2000 (Life Technologies) in a total volume of reaction of 1 mL of antibiotic free DMEM media for a period of 6-10 hours. Media was then replaced with antibiotic free DMEM. Lentiviral particles were collected between 48-72 hours. SW480 cells ([…] in a 12-well plate) were infected 1:1 (virus containing media: antibiotic free DMEM media, total volume 1 mL) for a period of 24 hours. Then, media was replaced with DMEM complete media for an additional 24 hours. At this point, cells were split and seeded (20% confluent) for selection in a 10 cm dish with puromycin (2.5 μg/mL)-containing complete DMEM media and cultured for 10 days. Puromycin containing complete media was replaced every 2-3 days. Puromycin-resistant clones were screened for knockdown of NOXA by Western blot analysis with NOXA antibody.
Apoptotic cells were quantified by sub-G1 analysis. […]

Test [6] deals with T1, R175H p53 mutant in HCT116 p53 R175H cells (Homo sapiens, UniProt P04637, R175H).
T1 construct: V5 (only from the vector name pLenti6/V5); host or cells: HCT116 p53-/- cells, lentivirus infection, blasticidin-selected pooled clones
Put plainly: Western blot of mutant p53. Type of test: cell-based. Here is the method: HCT116 p53^−/− cells (previously obtained from the Vogelstein Laboratory, Johns Hopkins University) were infected with a lentivirus vector containing the p53 R175H mutant (pLenti6/V5-p53_R175H, Addgene). Cells were selected with blasticidin (8 μg/mL) containing media cultured for 10 days. Blasticidin-resistant clones (pooled clones) were screened for expression of the p53 R175H mutation by Western blot analysis with p53 DO-1 antibody.
After treatment, cells were harvested by trypsinization, washed with PBS, and lysed with RIPA buffer (Sigma-Aldrich) for 30 minutes to 1 hour at 4° C. Protein lysates were spun down and supernatant was collected. Protein quantification was performed using a Pierce™ BCA Protein Assay Kit (Thermo Fisher Scientific). 1×NuPAGE® LDS sample buffer (Thermo Fisher Scientific) and 2-Mercaptoethanol as the reducing agent (Sigma-Aldrich) were added to protein lysates, followed by boiling for 15 minutes at 95° C. Equal total protein amounts samples were loaded into NuPAGE™ Novex™ 4-12% Bis-Tris Protein Gels (1.5 mm, Thermo Fisher Scientific) and gel eletrophoresis was performed with NuPAGE™ MES SDS Running Buffer. Proteins were transferred onto an Immobilon-P membrane (PVDF, EMD Millipore) using a Bio-Rad system with a 10% Tris-Glycine and 10% methanol transfer buffer diluted in distilled and deionized water. After transfer, membranes were blocked with 10% milk in TBST solution and then incubated overnight with primary antibody, washed with TBST and incubated with secondary antibody for 1 hour. Incubations were performed in 5% milk in TBST solution. Signal was detected by using a chemiluminescent detection kit, followed by autoradiography. The following antibodies were used: p53 (DO-1, 1:1000, Santa Cruz), p73 (1:1000, Bethyl Laboratories), p21 and NOXA (1:250, EMD Millipore), DR5, FADD, cleaved caspase 3, cleaved caspase 8, cleaved PARP, and LC3B (1:1000, Cell Signaling), and β-actin (1:10000, Sigma).

`Cn1c(=O)c2[nH]c(Nc3ccccc3)nc2n(C)c1=O` [CB002, 8-anilino-1,3-dimethyl-3,7-dihydro-1H-purine-2,6-dione] came in with a sub-G1 population in test [1] (96 μM, 48 hours, DMSO control 7.6%) of 9.8%. In test [1] (200 μM, 72 hours), the sub-G1 fraction result is “relatively unchanged”. Further, the colony formation entry in test [2], in test [3] and in test [4] was “significantly decreases colony formation” in each case. In test [5], this compound came in with a sub-G1 content of 3.7%. In addition, the “R175H mutant p53 protein expression” value is “decrease in mutant p53 protein expression” in test [6] (50 and 100 μM, 16 and 24 hours, versus DMSO); “did not rescue R175H mutant p53 protein expression” in test [6] (co-treatment with chloroquine, 16 and 24 hours); “appeared to rescue R175H mutant p53 protein expression” in test [6] (with proteasome inhibitor MG132 (5 and 10 μM), 24 hours). Moreover, the “R175H p53 mutant protein expression” value in test [6] (50 or 100 μM with MDM2 inhibitor Nutlin-3A, 24 hours) was “still resulted in reduction of R175H p53 mutant protein expression”.

Source of the values: patent US11203598B2, “Compounds for repressing cancer cell growth” (Institute For Cancer Research, priority 2018, dated 2021).
